For orientation: IC50 means the midpoint of a concentration-inhibition curve. Low values mean higher potency, high ones lower potency.

In the test the target is Glutamate receptor ionotropic, NMDA 1 (Rattus norvegicus, UniProt P35439). The experiment in a line: In Vitro Activity Assay. The source says:
In Vitro Activity: Evaluation of NMDAR Blocking Activity Using Patch-ClampPrevious studies have shown that the NMDAR exists in the peripheral vasculature.All NMDAR subunits were examined by RT-PCR and sequencing in the peripheral endothelium and peripheral vascular smooth muscle cells.

As to `CC[N@@+]1(CCO)[C@H]2Cc3ccccc3[C@@]1(C)c1ccccc12` [US11944616, Compound 27], the concentration for half-maximal inhibition (IC50) amounted to 360 nM.
